Reference: US20150196500A1, “Treatment of Mitochondria-Related Diseases and Improvement of Age-Related Metabolic Deficits” (PHILERA NEW ZEALAND LIMITED, priority 2005, published 2015)
“Also recorded” adds a separate entry of the source. Read-outs that look alike come from different tables or passages of the source.

Columns and labels:
[1] = tested on: electron transport chain complexes I to V of left ventricle mitochondria; conditions: rat, in vivo
Description: Male Wistar rats (starting body weight from about 200 to about 250 g) were maintained on Teklad TB 2108 (Harlan UK) rat chow and tap water ab libitum. At eight weeks the rats were randomized into two groups: control and diabetic (STZ). Rats were made diabetic by injection with 60 mg/kg STZ and the control rats were given a corresponding amount of 0.9% sodium chloride.
The control groups received Milli-Q water ab libitum during the corresponding period. At the end of the eleven week treatment period, rats were anaesthetized with isoflurane, the abdominal cavity was opened and a catheter inserted into the vena cava. Approximately 1 mL of blood was removed for future analysis and 10000 U/Kg heparin infused. […]
Fiber respiration was then measured in a respirometer at 30° C. at high resolution using Clark-type electrodes and integrated software that was used for data acquisition and analysis (DatLab 4, Oroboros, Oxygraph; Innsbruck, Austria). […] Respiratory rates (oxygen fluxes) were expressed as pmol O2. […]
Respiratory flux rates through complex I (GM2 and GM3), complexes I and II (GMS3) and II (S3) were determined to measure the intactness of the individual complexes (GM3 and S3), and to estimate maximal flux rates through the electron transport chain.

[2] = tested on: mitochondria isolated from hearts of obese ZDF rats and lean littermates; assay type: cell-based, rat
[3] = tested on: cytochrome c release from mitochondria isolated from lean (non-diabetic) ZDF rats; assay: Cytochrome c release from isolated mitochondria, Western blot; assay type: cell-based, rat; conditions: for cytochrome c release into supernatant: 5 mM alone, 30 min incubation
[4] = tested on: citrate synthase in mitochondria isolated from lean (non-diabetic) ZDF rats; assay: Residual citrate synthase activity in mitochondrial pellets (marker of inner membrane integrity); assay type: cell-based, rat
Description: An enzyme assay was then used to evaluate the mitochondrial pellets to determine the contents of the matrix protein citrate synthase in order to evaluate the integrity of the mitochondria after the respective incubations. Citrate synthase activity was determined according to the methods decscribed in Newsholme and Crabtree, J. Exp. Zoo. 239(2): 159-67 (1986). In brief, frozen mitochondrial pellets were resuspended in a reaction mixture containing 50 mM Tris-HCl (pH8.0), 0.1 mM acetyl coenzyme A and 0.2 mM 5,5′-dithiobis-(2-nitrobenzoic acid) (DTNB). Reactants were incubated for five minutes prior to measurement and the assay started by the addition of 5 mM oxaloacetate. Absorbance of DTNB was then followed at 412 nm and units were calculated relative to soluble protein using the biccichonic acid method (BCA, Pierce) with bovine serum albumin as standard.

[5] = in the presence of 5 mM spermine

Row | SMILES | cytochrome C oxidase flux (TMPD plus ascorbate) [1] | respiration flux rates of control treated mitochondria [1] | change in mitochondrial volume ([2]; 0-5 mM, no CaCl2, 30 minutes, diabetic or control mitochondria) | effect on swelling at concentrations above 0.625 mM ([2]; 150 μM CaCl2, mitochondria from obese and lean rats) | cytochrome c release into supernatant [3] | cytochrome c release on co-incubation with 5 mM spermine ([3]; 5 mM spermine plus test polyamine) | concentration dependence of diminished cytochrome c release ([3]; […] vs 5 mM, with 5 mM spermine) | residual citrate synthase activity ([4]; 5 mM alone, after 30 min) | citrate synthase activity in spermine treated mitochondria [4, 5] | relative potency in improving residual citrate synthase activity [4, 5] | change in mitochondrial volume [2] | effect on swelling at concentrations above 0.625 mM [2] | relative inhibition of Ca2+ induced swelling among the three polyamines [2] | incubation time to maximum release of cytochrome c ([3]; data not shown) | residual citrate synthase activity ([4]; 5 mM alone) | residual citrate synthase activity ([4]; lower concentrations than 5 mM)
1 | NCCNCCNCCN.O=C(O)CCC(=O)O.O=C(O)CCC(=O)O [triethylenetetramine disuccinate] | significant improvement in cytochrome C oxidase | No significant effect | – | – | – | – | – | – | – | – | – | – | – | – | – | –
2 | NCCCCNCCCN [spermidine] | – | – | no detectable change in mitochondrial volume | continued to have a protective effect; also recorded: continue to protect mitochondria from swelling | caused cytochrome c release at 5 mM, albeit less than in the case of spermine | reduced, though to a lesser degree; also recorded: diminished cytochrome c release | less potent than when 5 mM was used | increased amounts of residual citrate synthase activity compared to control samples | improved citrate synthase activity, although not as effectively; also recorded: capable of improving residual citrate synthase activity | markedly less potent than triethylenetetramine dihydrochloride | – | – | – | – | – | –
3 | NCCCNCCCCNCCCN [spermine] | – | – | – | – | release of large amounts of cytochrome c | – | – | – | – | – | led to swelling of mitochondria | induced swelling; also recorded: appears to induce swelling | greatest inhibition of swelling | 30 min | rapid loss of citrate synthase activity | less severe impact on the residual citrate synthase activity
